# Measurements as given in US9192640B2, “Antiviral composition against flavivirus” (University Malaya, priority 2012, dated 2015).
# What was measured:
# Assay type in all cases: cell-based
# [1] = system: Japanese encephalitis virus; test: Antiviral activity on Japanese encephalitis virus replication, baicalein added post-infection; conditions: 50 μg/ml, added post-infection to Vero cells, two days, vs non-treated cells
# Procedure: In order to evaluate the antiviral activity of baicalein after virus attachment to cells, virus inoculum consisting of 200 FFU JE was added to the monolayer Vero cells and the virus was allowed to adsorp to the Vero cells for one hour at a temperature of 37° C. Unadsorped viruses were removed by rinsing the Vero cells with sterile PBS for two times. Different concentrations of baicalein (12.5 μg/ml, 25.0 μg/ml, 50.0 μg/ml and 100.0 μg/ml) were mixed with 1.5% CMC containing cell-growth medium supplemented with 2% FBS respectively before incubated at 37° C. for two days. Then, the number of viral foci was determined.
# [2] = system: dengue virus type-2 (DENV-2); test: Inhibition of DENV-2 attachment to host cells, baicalein added simultaneously with virus
# Procedure: (§1) In order to determine the prophylactic anti-dengue activity of baicalein, different concentrations of baicalein (6.25 μg/ml, 12.50 μg/ml, 25.0 μg/ml, and 50.0 μg/ml) were added to the Vero cell monolayers five hours before adding virus. After five hours of pre-infection treatment, the cells were washed twice with phosphate-buffered saline (PBS). Then, 200 FFU (focus-forming units) of dengue virus type-2 (DENV-2) was inoculated to the cells to produce infected cells. The infected cells were incubated at 37° C. for one hour. Then the infected cells were washed two times with PBS to eliminate the unadsorped viruses. Growth medium (the growing medium is but not limited to Eagle's minimal essential medium; EMEM) was supplemented with 2% fetal bovine serum (FBS), 1 mM non-essential amino acid solution, 1 mM L-glutamine solution, and 1.5% carboxymethyl cellulose (CMC) solution) was added to the infected cells in the microplate. The microplate was incubated at 37° C. for four days. The number of viral foci formed and the viral RNA level were determined. The prophylactic activity of baicalein against DENV-2 was measured by the decrease in the number of viral foci and reduction of viral RNA synthesis. The number of DENV-2 foci was counted using a stereomicroscope and the titer of virus was expressed as FFU. The percentage of foci reduction (RF %) compared against controls was calculated as follows: RF (%)=(C−T)×100/C, where, C is the mean of the number of foci for negative control (without baicalein) and T is the mean of the number of foci in treated wells. Reduction in the number of viral foci was further verified using quantitative RT-PCR (qRT-PCR) which determine the copy number of dengue virus specific RNA. The same procedure was repeated to Vero cells which were treated with only virus suspension without baicalein (non-treated cells) and this served as the untreated control.
# Inhibition of DENV-2 attachment to host cells was evaluated by adding different concentrations (3.12 μg/ml, 6.25 μg/ml, 12.5 μg/ml, 25.0 μg/ml, and 50.0 μg/ml) of baicalein to Vero cells simultaneously with 200 FFU DENV-2. Then, the infected Vero cells were incubated at 37° C. for one hour in the presence of the respective concentration of baicalein. Following after, the infected Vero cells were washed two times using sterile PBS. Growth medium supplemented with 2% fetal bovine serum (FBS), 1 mM non-essential amino acid solution, 1 mM L-glutamine solution, and 1.5% carboxymethyl cellulose (CMC) solution) was added to the infected cells in the microplate. […] The number of viral foci formed and the viral RNA level were determined. The amount of viral RNA synthesis was determined using quantitative real time polymerase chain reaction amplification (qRT-PCR).
# [3] = system: dengue virus type-2 (DENV-2); test: Antiviral activity on DENV-2 replication, baicalein added post-infection
# Procedure: as §1, with “The same procedure was repeated to Vero cells which were treated with only virus suspension without baicalein (non-treated cells) and this served as the untreated control.” left out
# In order to evaluate the antiviral activity of baicalein after virus attachment to cells, virus inoculum consisting of 200 FFU DENV-2 was added to the monolayer Vero cells and the virus was allowed to adsorp to the Vero cells for one hour at a temperature of 37° C. […] Then, the number of viral foci and viral RNA level were measured.
# [4] = system: dengue virus type-2 (DENV-2); test: Prophylactic anti-dengue activity, pre-treatment of Vero cells (foci reduction and qRT-PCR)
# Procedure: as §1
# [5] = system: dengue virus type-2 (DENV-2); test: Direct virucidal activity against DENV-2
# Procedure: as §1, with “The same procedure was repeated to Vero cells which were treated with only virus suspension without baicalein (non-treated cells) and this served as the untreated control.” left out
# In order to determine the direct virucidal activity of baicalein against DENV-2, DENV-2 suspension containing 200 FFU was incubated with different concentrations of baicalein (1.56 μg/ml, 3.12 μg/ml, 6.25 μg/ml, 12.50 μg/ml, 25.0 μg/ml) at 37° C. for two hours to produce a treated viral suspension. […] The number of viral foci formed and the viral RNA level were determined.
# [6] = 50 μg/ml, added after virus adsorption to Vero cells, four days, vs non-treated cells
# [7] = 12.5 μg/ml, DENV-2 suspension incubated with baicalein at 37° C. for two hours before infecting Vero cells
smiles,measurement,setting,value
"O=c1cc(-c2ccccc2)oc2cc(O)c(O)c(O)c12 [baicalein, 5,6,7-Trihydroxyflavone]",reduction in number of Japanese encephalitis virus foci formed,[1],> 90%
same,decrease in level of DENV-2 RNA production,"[2]; 25 μg/ml, added simultaneously with DENV-2 to Vero cells, qRT-PCR, vs non-treated cells",90.3%±1.6
same,reduction in number of dengue virus foci formed,"[2]; 25 μg/ml, added simultaneously with DENV-2 to Vero cells, vs non-treated cells",76.6%
same,decrease in DENV-2 RNA level at 50 μg/ml compared with 25 μg/ml,"[2]; 50 μg/ml, added simultaneously with DENV-2",Higher decrease in RNA level was observed
same,IC50,"[2]; Dengue virus, DENV2, Vero",7.14 µg/mL
same,decrease in level of DENV-2 RNA production,[3]; [6],84.9%±2.15
same,reduction in number of dengue virus foci formed,[3]; [6],78.3%
same,IC50,"[3]; Dengue virus, DENV2, Vero",6.46 µg/mL
same,reduction in level of dengue virus type-2 RNA production,"[4]; 50 μg/ml, Vero cells pre-treated five hours before infection, qRT-PCR, vs non-treated cells",39.5%±0.8
same,reduction in number of dengue virus foci formed,"[4]; 50 μg/ml, Vero cells pre-treated five hours before infection, vs non-treated cells",~37%
same,IC50,"[4]; Dengue virus, DENV2, Vero, read-out: IC50 in pretreatment of cells",109 µg/mL
same,decrease in level of DENV-2 RNA production,[5]; [7],99.2%±0.4
same,reduction in number of dengue virus foci formed,[5]; [7],97.93%
same,IC50,"[5]; Dengue virus, DENV2, 2 h",1.55 µg/mL
